Among the data in ChEMBL document CHEMBL5729293, “Inhibitors of KEAP1-Nrf2 protein-protein interaction” (2022) are Kd values, retold here.

The assay in a line: Fluorescence Based Assay: The details of the KEAP1 KELCH ThermoFluor® Assay Construct are as follows: Kelch domain of human KEAP 1 (321-624 aa) was used in the assay. The protein was expressed in E. coli with 6His tag that was cleaved prior to receipt for use.ThermoFluor® experiments were carried out using instruments owned by Janssen Research and Discovery, L.L.C. through its acquisition of 3-Dimensional Pharmaceuticals, Inc. 1,8-ANS (Invitrogen) was used as a fluorescent dye. Protein (KEAP Kelch) and compound solutions were dispensed into black 384-well polypropylene PCR microplates (Abgene) and overlayed with silicone oil (1 μL, Fluka, type DC 200) to prevent evaporation.Reference wells contained KEAP Kelch without compounds, and the assay conditions were as follows: 1.1 μM (0.037mg/mL) KEAP Kelch, 80 μM 1,8-ANS, 25 mM PIPES, pH 7.0, 100 mM NaCl, 0.002% Tween-20.
One may read the Kd as the free concentration of one partner at which half of the binding sites on the other are occupied at equilibrium, for simple one-to-one binding. Lower therefore signals tighter binding. Take `Cc1ccc([C@@H](c2ccc3c(nnn3C3CC3)c2C)C(C)(C)C(=O)O)cc1CN1CC2(CC2)Oc2nc(N[C@@H](C)CN3CCCCC3)c(C)cc2S1(=O)=O`: the Kd was below 1 nM.

`Cc1cnc([C@@H](c2ccn3c(C(F)(F)F)nnc3c2C)C(C)(C)C(=O)O)cc1CN1CC2(CCOCC2)Oc2nc(OCCN3CCCC3)c(C)cc2S1(=O)=O` gave a Kd below 1 nM.

`Cc1cnc2c(c1)S(=O)(=O)N(Cc1cc([C@@H](c3ccc4c(nnn4C4CC4)c3C)C(C)(C)C(=O)O)cnc1C)CC1(COC1)O2` registered a Kd below 1 nM.

Consider `Cc1ccc(C(CC(=O)O)c2ccn3c(C(F)(F)F)nnc3c2C)nc1CN1C[C@@H]2CCCCN2c2ncc(F)cc2S1(=O)=O` (stereo not given in full), for which the Kd is below 1 nM.

For `Cc1cnc2c(c1)S(=O)(=O)N(Cc1nc(C(CC(=O)O)c3ccn4c(C(F)(F)F)nnc4c3C)ccc1C)C[C@@H]1CCCCN21` (stereo not given in full), the Kd was below 1 nM.

`Cc1cnc2c(c1)S(=O)(=O)N(Cc1cc([C@@H](c3ccn4c(C(F)(F)F)nnc4c3C)C(C)(C)C(=O)O)ccc1C)CC1(CC1)O2` gave a Kd below 1 nM.

`CCn1nnc2c(C)c(C(CC(=O)O)c3ccc(C)c(CN4C[C@@H]5CCCCN5c5ncccc5S4(=O)=O)n3)ccc21` (stereo not given in full) yielded a Kd below 1 nM.

Consider `Cc1ncc([C@@H](c2ccn3c(C(F)(F)F)nnc3c2C)C(C)(C)C(=O)O)cc1CN1C[C@@H]2CCCCN2c2ncc(C#N)cc2S1(=O)=O`, for which the Kd was below 1 nM.

`CCn1nnc2c(C)c([C@H](CC(=O)O)c3ccc(C)c(CN4CC5(CC5)Oc5ncccc5S4(=O)=O)n3)ccc21`: the Kd is below 1 nM.

The compound `Cc1ccc([C@H](CC(=O)O)c2ccn3c(C(F)(F)F)nnc3c2C)cc1CN1C[C@H]2CCCN2c2ccccc2S1(=O)=O` registered a Kd below 1 nM.

Compound `Cc1ccc([C@H](CC(=O)O)c2ccn3c(C(F)(F)F)nnc3c2C)cc1CN1C[C@@H]2CCC(F)(F)CN2c2ncccc2S1(=O)=O` showed a Kd below 1 nM.

In turn, `Cc1ccc([C@@H](CC(=O)O)c2ccn3c(C(F)F)nnc3c2C)cc1CN1C[C@@H]2CCCN2c2ncc(C#N)cc2S1(=O)=O` displayed a Kd below 1 nM.

The compound `Cc1ccc([C@@H](CC(=O)O)c2ccc3c(nnn3CC3CC3)c2C)cc1CN1C[C@H]2CCCCN2c2ncccc2S1(=O)=O` registered a Kd below 1 nM.

Compound `Cc1ccc(C(CC(=O)O)c2ccn3c(C(F)F)nnc3c2C)cc1CN1C[C@H]2CCCN2c2ncc(C#N)cc2S1(=O)=O` (stereo not given in full) came in with a Kd below 1 nM.

Consider `Cc1ccc(C(CC(=O)O)c2ccc3c(nnn3C3CC3)c2C)cc1CN1C[C@]2(C)CCCN2c2ncccc2S1(=O)=O` (stereo not given in full), for which the Kd was below 1 nM.

The compound `CC[C@@H]1CN(Cc2nc([C@@H](CC(=O)O)c3ccc4c(nnn4C4CC4)c3C)ccc2C)S(=O)(=O)c2cccnc2O1` displayed a Kd below 1 nM.

The compound `Cc1ccc([C@H](CC(=O)O)c2ccn3c(C)nnc3c2)cc1CN1C[C@H]2CCCN2c2ncccc2S1(=O)=O` had a Kd below 1 nM.

For the compound `Cc1ccc2c(n1)OC1(CC1)CN(Cc1cc([C@H](CC(=O)O)c3ccn4c(C(F)(F)F)nnc4c3C)ccc1C)S2(=O)=O`, the Kd was below 1 nM.

Compound `Cc1ccc(C(CC(=O)O)c2cc(OC(F)F)c3c(c2)nnn3C)cc1CN1C[C@H]2CCCN2c2ncccc2S1(=O)=O` (stereo not given in full) registered a Kd below 1 nM.

As to `Cc1cnc2c(c1)S(=O)(=O)N(Cc1nc([C@@H](CC(=O)O)c3ccn4c(C(F)(F)F)nnc4c3C)ccc1C)C[C@H]1CCCCN21`, the Kd was below 1 nM.

Compound `Cc1ccc([C@H](c2ccc3c(nnn3C3CC3)c2C)C(C)(C)C(=O)O)cc1CN1CC2(CCNCC2)Oc2ncccc2S1(=O)=O` came in with a Kd below 1 nM.

`Cc1ccc([C@H](c2ccn3c(C(F)(F)F)nnc3c2C)C(C)(C)C(=O)O)cc1CN1CC2(CCOCC2)Oc2nc(OCCN3CCNCC3)ccc2S1(=O)=O` returned a Kd below 1 nM.

`Cc1ccc([C@H](c2ccn3c(C(F)(F)F)nnc3c2C)C(C)(C)C(=O)O)cc1CN1CC2(CCOCC2)Oc2nc(OCC(=O)NCCO)ccc2S1(=O)=O`: the Kd is below 1 nM.

In the case of `Cc1ccc([C@@H](CC(=O)O)c2cc(OC3CC3)c3c(c2)nnn3C)cc1CN1C[C@H]2CCCCN2c2ncccc2S1(=O)=O`, the Kd was below 1 nM.

Take `Cc1cc2cc(C(CC(=O)O)c3ccc(C)c(CN4C[C@@H]5CCCCN5c5ncccc5S4(=O)=O)c3)n(C)c2nn1` (stereo not given in full): the Kd was below 1 nM.

For the compound `Cc1ccc([C@H](c2ccn3c(C(F)(F)F)nnc3c2C)C(C)(C)C(=O)O)cc1CN1CC2(CCOCC2)Oc2nc(N[C@@H](C)CN3CCOCC3)c(C)cc2S1(=O)=O`, the Kd is below 1 nM.

Regarding `Cc1ccc(C(CC(=O)O)c2ccn3c(C(F)(F)F)nnc3c2C)cc1CN1CC(C)(C)Oc2ncccc2S1(=O)=O` (stereo not given), the Kd is below 1 nM.

In turn, `CCn1nnc2c(C)c([C@@H](CC(=O)O)c3ccc(C)c(CN4C[C@H]5CCCN5c5ccccc5S4(=O)=O)c3)ccc21` registered a Kd below 1 nM.

In the case of `Cc1ccc(C(CC(=O)O)c2ccn3c(C(F)(F)F)nnc3c2C)cc1CN1C[C@H]2CCCCN2c2ncccc2S1(=O)=O` (stereo not given in full), the Kd is below 1 nM.

As to `Cc1ccc(C(CC(=O)O)c2ccn3c(C(F)F)nnc3c2C)cc1CN1CC2(CCOCC2)Oc2ncc(F)cc2S1(=O)=O` (stereo not given), the Kd was below 1 nM.

The compound `Cc1ccc([C@H](CC(=O)O)c2ccn3c(C4CC4)nnc3c2C)cc1CN1CC2(CC2)Oc2ncc(F)cc2S1(=O)=O` registered a Kd below 1 nM.

For `CCn1nnc2c(C)c([C@H](CC(=O)O)c3ccc(C)c(CN4C[C@H]5CCCN5c5ncccc5S4(=O)=O)n3)ccc21`, the Kd was below 1 nM.

`Cc1ccc(C(CC(=O)O)c2ccn3c(C(F)(F)F)nnc3c2C)cc1CN1C[C@H]2CCCN2c2ccccc2S1(=O)=O` (stereo not given in full) yielded a Kd below 1 nM.

Regarding `CCc1nnc2c(C)c([C@H](CC(=O)O)c3ccc(C)c(CN4C[C@H]5CCCN5c5ccccc5S4(=O)=O)c3)ccn12`, the Kd was below 1 nM.

As to `Cc1cnc2c(c1)S(=O)(=O)N(Cc1cc([C@@H](c3ccn4c(C(F)(F)F)nnc4c3C)C(C)(C)C(=O)O)ccc1C)CC1(CNC1)O2`, the Kd is below 1 nM.

For the compound `Cc1ccc([C@H](c2ccn3c(C(F)(F)F)nnc3c2C)C(C)(C)C(=O)O)cc1CN1C[C@]2(CCOC2)Oc2ncccc2S1(=O)=O`, the Kd was below 1 nM.

The compound `Cc1ccc([C@@H](CC(=O)O)c2ccn3c(C(F)(F)F)nnc3c2C)nc1CN1C[C@@H]2CCCCN2c2ncc(F)cc2S1(=O)=O` returned a Kd below 1 nM.

For the compound `Cc1ccc([C@@H](c2ccn3c(C(F)(F)F)nnc3c2C)C(C)(C)C(=O)O)cc1CN1CC2(CCOCC2)Oc2nc(O[C@H](C)CN3CCCCC3)c(C)cc2S1(=O)=O`, the Kd was below 1 nM.

Consider `Cc1cnc2c(c1)S(=O)(=O)N(Cc1cc([C@H](c3ccc4c(nnn4C4CC4)c3C)C(C)(C)C(=O)O)cnc1C)CC1(CCOCC1)O2`, for which the Kd was below 1 nM.

The compound `Cc1ccc([C@H](c2ccn3c(C(F)(F)F)nnc3c2C)[C@H](C)C(=O)O)cc1CN1CC2(CC2)Oc2ncccc2S1(=O)=O` showed a Kd below 1 nM.

Regarding `CC[C@@H]1CN(Cc2cc([C@H](CC(=O)O)c3ccn4c(C(F)(F)F)nnc4c3)ccc2C)S(=O)(=O)c2cccnc2O1`, the Kd was below 1 nM.

`Cc1ccc([C@@H](c2ccn3c(C(F)(F)F)nnc3c2C)C(C)(C)C(=O)O)nc1CN1CC2(CCOCC2)Oc2ncccc2S1(=O)=O` displayed a Kd below 1 nM.

`Cc1cnc2c(c1)S(=O)(=O)N(Cc1nc([C@@H](c3ccn4c(C(F)F)nnc4c3C)C(C)(C)C(=O)O)ccc1C)CC1(COC1)O2` had a Kd below 1 nM.

In turn, `CCn1nnc2c(C)c([C@H](CC(=O)O)c3ccc(C)c(CN4CC5(COC5)Oc5ncccc5S4(=O)=O)n3)ccc21` registered a Kd below 1 nM.

Consider `Cc1ccc([C@H](c2ccn3c(C(F)(F)F)nnc3c2C)C(C)(C)C(=O)O)cc1CN1C[C@@H]2CCCCN2c2ncc(C#N)cc2S1(=O)=O`, for which the equilibrium dissociation constant (Kd) is below 1 nM.
